According to patent US11613546B2, “Substituted pyridotriazine compounds and uses thereof” (Gilead Sciences, Inc., priority 2021, dated 2023):
Like-named read-outs stand apart in the source and are kept apart here.

Tests used:
Type in all cases: cell-based
HIV-1 (IIIB) = test: Antiviral assay in MT-4 cells; conditions: HIV-1 IIIB infected MT-4 cells, 5 days, Cell Titer Glo, read-out: MT4 EC50
How it was run: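 MT-4 cells infected with a 1:250 dilution of HIV-1 IIIB stock were incubated with serially diluted (1:3) compound for 5 days at 37 °C. Viability read by Cell Titer Glo luminescence; EC50 is the concentration giving 50% decrease in signal, from sigmoidal dose-response fits.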

MT-4 cells = test: Cytotoxicity assay in MT-4 cells
How it was run: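 Uninfected MT-4 cells were incubated with 1:3 serially diluted compound in RPMI/10% FBS for 5 days at 37° C. Viability was read by CellTiter-Glo luminescence, with 10 μM puromycin as the baseline cytotoxicity control. Values are the concentration giving a 50% decrease in luminescence, from sigmoidal dose-response fits.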

pLai RLuc reporter virus = test: HIV MT-4 serum shift antiviral reporter assay
How it was run: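 MT-4 cells pre-infected with pLai RLuc virus for 2 h at 37 °C, then incubated 72 h at 37 °C with compound in medium (RPMI, 10% FBS) with or without 50% human serum; Renilla luminescence read. EC50 from sigmoidal fit; serum shift = EC50(HS/CCM)/EC50(CCM).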

[1] = uninfected MT-4 cells, 5 days, Cell Titer Glo, read-out: CC50
[2] = Human immunodeficiency virus 1, IIIB, MT4, 120 h
[3] = Human immunodeficiency virus 1, 72 h, read-out: RLUC 50% HS (nM), HS/CCM: 50% human serum, 72 h, Renilla Glo
[4] = Human immunodeficiency virus 1, 72 h, read-out: RLUC CCM (nM), cell culture media (RPMI, 10% FBS), 72 h, Renilla Glo
[5] = read-out: RLUC 50% HS, HS/CCM: 50% human serum, 72 h, Renilla Glo
[6] = read-out: RLUC CCM, cell culture media (RPMI, 10% FBS), 72 h, Renilla Glo
[7] = HS/CCM: 50% human serum, 72 h, Renilla Glo, read-out: RLUC 50% HS
[8] = cell culture media (RPMI, 10% FBS), 72 h, Renilla Glo, read-out: RLUC CCM

| Molecule | EC50 (HIV-1 (IIIB)) [nM] | CC50 (MT-4 cells; [1]) [nM] | also measured |
| --- | --- | --- | --- |
| C[C@@H]1CCCCN2CN1n1cc(C(=O)NCc3ccc(F)cc3F)c(=O)c(O)c1C2=O [Example C15, (1R,2R)—N-(2,4-difluorobenzyl)-9-hydroxy-2-methyl-8,10-dioxo-3,4,5,6,8,10-hexahydro-2H-1,7-methanopyrido[1,2-b][1,2,5]triazecine-11-carboxamide] | 1.9 | 9970 |  |
| C[C@@H]1c2nc[nH]c2[C@H](C)N2CN1n1cc(C(=O)NCc3ccc(F)cc3F)c(=O)c(O)c1C2=O [Example C60, (4R,5S,13S)—N-(2,4-difluorobenzyl)-10-hydroxy-4,13-dimethyl-9,11-dioxo-4,9,11,13-tetrahydro-1H-5,12-methanoimidazo[4,5-g]pyrido[1,2-b][1,2,5]triazonine-8-carboxamide] |  | 50000 | EC50 (HIV-1 (IIIB); [2]): 95.7 nM; EC50 (pLai RLuc reporter virus; [3]): 104 nM; EC50 (pLai RLuc reporter virus; [4]): 42.6 nM |
| C[C@@H]1CCC[C@H](C)N2CN1n1cc(C(=O)NCc3c(F)cc(F)cc3F)c(=O)c(O)c1C2=O [Example C14, (1R,2S,6R)-9-hydroxy-2,6-dimethyl-8,10-dioxo-N-(2,4,6-trifluorobenzyl)-3,4,5,6,8,10-hexahydro-2H-1,7-methanopyrido[1,2-b][1,2,5]triazecine-11-carboxamide] | 2 | 8060 | EC50 (pLai RLuc reporter virus; [5]): 31.1 nM; EC50 (pLai RLuc reporter virus; [6]): 0.71 nM |
| C[C@@H]1CCC[C@H](C)N2CN1n1cc(C(=O)NCc3c(F)cc(F)cc3F)c(=O)c(O)c1C2=O [Example C8, (1S,2R,6S)-9-hydroxy-2,6-dimethyl-8,10-dioxo-N-(2,4,6-trifluorobenzyl)-3,4,5,6,8,10-hexahydro-2H-1,7-methanopyrido[1,2-b][1,2,5]triazecine-11-carboxamide] |  | 4720 | EC50 (HIV-1 (IIIB); [2]): 1.8 nM; EC50 (pLai RLuc reporter virus; [5]): 16.4 nM; EC50 (pLai RLuc reporter virus; [6]): 0.55 nM |
| O=C(NCc1c(F)cc(F)cc1F)c1cn2c(c(O)c1=O)C(=O)N1Cc3cc(F)ccc3CN2C1 [Example C1, (6R)-10-fluoro-1-hydroxy-2,14-dioxo-N-(2,4,6-trifluorobenzyl)-2,7,12,14-tetrahydro-6,13-methanobenzo[g]pyrido[1,2-b][1,2,5]triazonine-3-carboxamide] | 20 | 10100 | EC50 (pLai RLuc reporter virus; [7]): 30.2 nM; EC50 (pLai RLuc reporter virus; [8]): 3.18 nM |
| CO[C@@H]1[C@H](OC)[C@H](C)N2CN([C@@H]1C)n1cc(C(=O)NCc3c(F)cc(F)cc3F)c(=O)c(O)c1C2=O [Example C61, (1S,2R,3S,4R,5S)-8-hydroxy-3,4-dimethoxy-2,5-dimethyl-7,9-dioxo-N-(2,4,6-trifluorobenzyl)-2,3,4,5,7,9-hexahydro-1,6-methanopyrido[1,2-b][1,2,5]triazonine-10-carboxamide] |  | 50000 | EC50 (HIV-1 (IIIB); [2]): 2.8 nM; EC50 (pLai RLuc reporter virus; [3]): 1.6 nM; EC50 (pLai RLuc reporter virus; [4]): 0.76 nM |
| C[C@H]1CC[C@H](C)N2CN1C(=O)c1c(O)c(=O)c(C(=O)NCc3c(F)cc(F)cc3F)cn12 [Example C28, (1S,2S,5S)-8-hydroxy-2,5-dimethyl-7,9-dioxo-N-(2,4,6-trifluorobenzyl)-2,3,4,5,7,9-hexahydro-1,6-methanopyrido[1,2-b][1,2,5]triazonine-10-carboxamide] | 1.4 | 6870 | EC50 (pLai RLuc reporter virus; [5]): 319 nM; EC50 (pLai RLuc reporter virus; [6]): 0.33 nM |
| C[C@H]1C=CC(C)(C)N2CN1n1cc(C(=O)NCc3ccc(F)cc3F)c(=O)c(O)c1C2=O [Example C91, (1R,2S)—N-(2,4-difluorobenzyl)-8-hydroxy-2,5,5-trimethyl-7,9-dioxo-2,5,7,9-tetrahydro-1,6-methanopyrido[1,2-b][1,2,5]triazonine-10-carboxamide] | 1.9 | 31000 | EC50 (pLai RLuc reporter virus; [7]): 195 nM; EC50 (pLai RLuc reporter virus; [8]): 0.67 nM |
| C[C@@H]1C(F)=C[C@H](C)N2CN1n1cc(C(=O)NCc3c(F)cc(F)cc3F)c(=O)c(O)c1C2=O [Example C36, (1S,2R,5S)-3-fluoro-8-hydroxy-2,5-dimethyl-7,9-dioxo-N-(2,4,6-trifluorobenzyl)-2,5,7,9-tetrahydro-1,6-methanopyrido[1,2-b][1,2,5]triazonine-10-carboxamide] | 1.6 | 16600 |  |
| C[C@H]1CCC[C@H](C)N2CN1C(=O)c1c(O)c(=O)c(C(=O)NCc3c(F)cc(F)cc3F)cn12 [Example C23, (1S,2S,6S)-9-hydroxy-2,6-dimethyl-8,10-dioxo-N-(2,4,6-trifluorobenzyl)-3,4,5,6,8,10-hexahydro-2H-1,7-methanopyrido[1,2-b][1,2,5]triazecine-11-carboxamide] |  | 50000 | EC50 (HIV-1 (IIIB); [2]): 2.5 nM; EC50 (pLai RLuc reporter virus; [3]): 14.5 nM; EC50 (pLai RLuc reporter virus; [4]): 0.29 nM |
| C[C@H]1C=CC(C)(C)N2CN1C(=O)c1c(O)c(=O)c(C(=O)NCc3c(F)cc(F)cc3F)cn12 [Example C48, (1S,5S)-8-hydroxy-2,2,5-trimethyl-7,9-dioxo-N-(2,4,6-trifluorobenzyl)-2,5,7,9-tetrahydro-1,6-methanopyrido[1,2-b][1,2,5]triazonine-10-carboxamide] | 1.5 | 50000 |  |
| C[C@@H]1/C=C\C[C@@H](C)N2CN1C(=O)c1c(O)c(=O)c(C(=O)NCc3c(F)cc(F)cc3F)cn12 [Example C18, (1S,2R,6R,Z)-9-hydroxy-2,6-dimethyl-8,10-dioxo-N-(2,4,6-trifluorobenzyl)-3,6,8,10-tetrahydro-2H-1,7-methanopyrido[1,2-b][1,2,5]triazecine-11-carboxamide] | 4.3 |  | CC50 (MT-4 cells): 13400 nM |
| C[C@@H]1CC(F)(F)[C@H](C)N2CN1n1cc(C(=O)NCc3c(F)cc(F)cc3F)c(=O)c(O)c1C2=O [Example C35, (1S,2R,5S)-4,4-difluoro-8-hydroxy-2,5-dimethyl-7,9-dioxo-N-(2,4,6-trifluorobenzyl)-2,3,4,5,7,9-hexahydro-1,6-methanopyrido[1,2-b][1,2,5]triazonine-10-carboxamide] | 1.6 | 29900 | EC50 (pLai RLuc reporter virus; [7]): 188 nM; EC50 (pLai RLuc reporter virus; [8]): 1.3 nM |
| (1S,2R,5S)—N-(2,4-difluorobenzyl)-8-hydroxy-2,3,5-trimethyl-7,9-dioxo-2,5,7,9-tetrahydro-1,6-methanopyrido[1,2-b][1,2,5]triazonine-10-carboxamide [Example C62] | 1.4 |  | CC50 (MT-4 cells): 50000 nM |
| O=C(NCc1c(F)cc(F)cc1F)c1cn2c(c(O)c1=O)C(=O)N1Cc3ccc(F)cc3CN2C1 [Example C4, (6S)-9-fluoro-1-hydroxy-2,14-dioxo-N-(2,4,6-trifluorobenzyl)-2,7,12,14-tetrahydro-6,13-methanobenzo[g]pyrido[1,2-b][1,2,5]triazonine-3-carboxamide] | 1.2 | 12000 | EC50 (pLai RLuc reporter virus; [7]): 6.08 nM; EC50 (pLai RLuc reporter virus; [8]): 0.54 nM |
| C[C@@H]1CCC(C)(C)N2CN1n1cc(C(=O)NCc3ccc(F)cc3F)c(=O)c(O)c1C2=O [Example C93, (1S,2R)—N-(2,4-difluorobenzyl)-8-hydroxy-2,5,5-trimethyl-7,9-dioxo-2,3,4,5,7,9-hexahydro-1,6-methanopyrido[1,2-b][1,2,5]triazonine-10-carboxamide] | 16.9 | 50000 | EC50 (pLai RLuc reporter virus; [7]): 96.8 nM; EC50 (pLai RLuc reporter virus; [8]): 1.15 nM |
| C[C@H]1/C=C\C[C@H](C)N2CN1C(=O)c1c(O)c(=O)c(C(=O)NCc3c(F)cc(F)cc3F)cn12 [Example C20, (1S,2S,6S,Z)-9-hydroxy-2,6-dimethyl-8,10-dioxo-N-(2,4,6-trifluorobenzyl)-3,6,8,10-tetrahydro-2H-1,7-methanopyrido[1,2-b][1,2,5]triazecine-11-carboxamide] | 3.5 | 16600 |  |
| C[C@@H]1[C@H]2C[C@H]2[C@H](C)N2CN1n1cc(C(=O)NCc3c(F)cc(F)cc3F)c(=O)c(O)c1C2=O [Example C88, (1aS,2R,3S,11S,11aR)-8-hydroxy-2,11-dimethyl-7,9-dioxo-N-(2,4,6-trifluorobenzyl)-1a,2,7,9,11,11a-hexahydro-1H-3,10-methanocyclopropa[g]pyrido[1,2-b][1,2,5]triazonine-6-carboxamide] | 1.1 | 34300 |  |
| C[C@@H]1N2CN([C@@H](C)CC1(F)F)n1cc(C(=O)NCc3ccc(F)cc3F)c(=O)c(O)c1C2=O [Example C59, (1S,2S,5S)—N-(2,4-difluorobenzyl)-4,4-difluoro-8-hydroxy-2,5-dimethyl-7,9-dioxo-2,3,4,5,7,9-hexahydro-1,6-methanopyrido[1,2-b][1,2,5]triazonine-10-carboxamide] |  | 50000 | EC50 (HIV-1 (IIIB); [2]): 2.8 nM |
| C[C@H]1C=C[C@@]2(CCOC2)N2CN1C(=O)c1c(O)c(=O)c(C(=O)NCc3c(F)cc(F)cc3F)cn12 [Example C85, (1′S,3R,5′S)-8′-hydroxy-5′-methyl-7′,9′-dioxo-N-(2,4,6-trifluorobenzyl)-4,5,7′,9′-tetrahydro-2H,5′H-spiro[furan-3,2′-[1,6]methanopyrido[1,2-b][1,2,5]triazonine]-10′-carboxamide] |  | 29000 |  |
